The values that follow are results of earlier work, collected in patent US20220387443A1, “RESPIRATORY SYNCYTIAL VIRUS FUSION PROTEIN INHIBITOR COMPOSITIONS AND METHODS FOR THE TREATMENT AND PROPHYLAXIS OF RSV DISEASES USING THE SAME” (priority 2019, published 2022).

The subject of series [1] is RSV. The conditions noted are these: human RSV viral challenge studies.
In series [2] the test system is RSV infection. The conditions noted are these: selected infants, intramuscularly 15 mg/kg once a month for the duration of RSV season.

With `Cc1cn2nc([C@@H]3CCCCN3C(=O)c3cc(Cl)ccc3NS(C)(=O)=O)cc2nc1N1CC[C@H](N)C1` [GS-5806], the “reduction of viral load” value in series [1] was 4.2 log 10.

With “palivizumab: humanized monoclonal antibody against RSV fusion (F) protein”, in series [2], the “reduction of hospitalization rate caused by RSV infection” value is 45-55%.
